Test results reported in patent publication US9878999B2, “Proteasome chymotrypsin-like inhibition using PI-1833 analogs” (H. Lee Moffitt Cancer Center and Research Institute, Inc., priority 2011, dated 2018).
Where “and” joins values, the source holds several entries; their conditions need not be identical. Identical values can stand only once. Entries after “also recorded” stand apart in the source; their conditions may differ. Like-named read-outs stand apart in the source and are kept apart here. Each block holds one molecule with its values, some of them ahead of it.

Experiments:
RPMI-8226 = test: MTT assay, proliferation and viability; type: cell-based; settings: Homo sapiens
PC3 = test: MTT assay, proliferation and viability; type: cell-based; settings: Homo sapiens, PC-3
HCT-116-p53^−/− = test: MTT assay, proliferation and viability; type: cell-based
[1] = molecular target: CT-L activity of purified 20S proteasome (Homo sapiens, UniProt P20618+P28074); test: in vitro CT-L activity of purified 20S proteasome; type: biochemical
[2] = molecular target: T1, T-L activity in MDA-MB-468 cells (Homo sapiens, UniProt Q99436); test: T-L activity in MDA-MB-468 cells; type: cell-based; settings: MDA-MB-468, within 10 min
T1 construct: endogenous in cells; host or cells: MDA-MB-468

[3] = molecular target: T2, CT-L activity in human breast cancer MDA-MB-468 cells (Homo sapiens, UniProt P20618+P28074); test: whole cell CT-L activity in MDA-MB-468 cells; type: cell-based
T2 construct: endogenous in cells; host or cells: MDA-MB-468

MDA-MB-468 = test: MTT assay, proliferation and viability; type: cell-based; settings: Homo sapiens, MDA-MB-468, WT K-Ras
[4] = tested on: MDA-MB-468 and HCT-116 cells; test: Western blot for cleaved caspase-3 and cleaved PARP (apoptosis); type: cell-based, human; settings: 48 h or 24 h
Procedure: FIG. 17 is a blot showing the apoptotic potential of PI-1833 and PI-1840. Exponentially growing human breast cancer cells MDA-MB-468 and colon cancer cells HCT-116 were treated with different concentrations of PI-1833 or PI-1840 for 48 h or 24 h, followed by WB analysis for cleaved caspase-3 and cleaved PARP.

[5] = tested on: proteasome substrates p27, Bax and IKB; test: Western blot, accumulation of proteasome substrates; type: cell-based
RX7-397 = test: MTT assay, proliferation and viability; type: cell-based; settings: RX7-397, 96 h
[6] = molecular target: T3, PGPH activity in MDA-MB-468 cells (Homo sapiens, UniProt P28072); test: PGPH activity in MDA-MB-468 cells; type: cell-based; settings: MDA-MB-468, within 10 min
T3 construct: endogenous in cells; host or cells: MDA-MB-468

MDA-MB-231 = test: MTT assay, proliferation and viability; type: cell-based; settings: Homo sapiens, MDA-MB-231, mut K-Ras
Colo357 = test: MTT assay, proliferation and viability; type: cell-based; settings: Homo sapiens, COLO357, 96 h
LNCaP = test: MTT assay, proliferation and viability; type: cell-based; settings: Homo sapiens, Bax^+/+
MCF-10A = test: MTT assay, proliferation and viability; type: cell-based; settings: Homo sapiens, normal/immortalized, 72 h
HCT-116 = test: MTT assay, proliferation and viability; type: cell-based; settings: Homo sapiens, HCT-116, mut K-Ras
HCT-116-HKH2 = test: MTT assay, proliferation and viability; type: cell-based; settings: HCT-116-HKH2, K-Ras^−/−
DU-145 = test: MTT assay, proliferation and viability; type: cell-based; settings: Homo sapiens, DU-145, Bax^−/−
[7] = 72 h, read-out: 72 h (MTT assay)
[8] = 96 h, read-out: 96 h (MTT assay)
[9] = WT p53, 72 h, read-out: 72 h (MTT assay)
[10] = WT p53, 96 h, read-out: 96 h (MTT assay)
[11] = Table 1, read-out: IC50 (μM) Chymotrypsin-like activity

IC50 (RPMI-8226; RPMI-8226, 72 h, read-out: 72 h (MTT assay)): 35.9 ± 11.2 µM | IC50 (RPMI-8226; RPMI-8226, 96 h, read-out: 96 h (MTT assay)): 34.7 µM | IC50 (PC3; PC3, 72 h, read-out: 72 h (MTT assay)): 92.7 µM | IC50 (PC3; PC3, 96 h, read-out: 96 h (MTT assay)): 62.5 µM | IC50 (HCT-116-p53^−/−; [7]): 45.9 ± 19.9 µM | IC50 (HCT-116-p53^−/−; [8]): 31.1 µM | fold improved CT-L activity ([1]; compared to the hit 1 (PI-1833)): 20 fold | IC50 ([1]; read-out: IC50, in vitro CT-L): 0.032 µM | inhibition of T-L activity in cells, in words [2]: not T-L or PGPH | IC50 (MDA-MB-468; mut p53, 72 h, read-out: 72 h (MTT assay)): 25.4 ± 5.83 µM | IC50 (MDA-MB-468; mut p53, 96 h, read-out: 96 h (MTT assay)): 11.6 µM | inhibition of PGPH activity in cells, in words [6]: not T-L or PGPH | IC50 (MDA-MB-231; [7]): 133 ± 21.6 µM | IC50 (MDA-MB-231; [8]): 106 µM | IC50 (Colo357): 95.7 µM | IC50 (LNCaP; [7]): 49 ± 6.81 µM | IC50 (LNCaP; [8]): 17.2 µM | IC50 (HCT-116; [9]): 40.9 ± 15.8 µM | IC50 (HCT-116; [10]): 35.3 µM | IC50 (HCT-116-HKH2; [9]): 43 ± 9.73 µM | IC50 (HCT-116-HKH2; [10]): 12.8 µM | IC50 (DU-145; [7]): 123 ± 25.2 µM | IC50 (DU-145; [8]): 159 µM
SMILES: CCCc1ccc(OCC(=O)N(Cc2nc(-c3cccnc3)no2)C(C)C)cc1 [11ad]
inhibition of CT-L activity in cells, in words ([3]; MDA-MB-468, listed as PI-1840): inhibits CT-L; also recorded: more potent at inhibiting CT-L activity in human breast cancer | induction of apoptosis, in words [4]: efficiently inducing apoptosis | accumulation of proteasome substrates p27, Bax and IKB, in words [5]: more potent at accumulating the proteasome substrates p27, Bax and IKB | IC50 (RX7-397): 56.9 µM | IC50 (MCF-10A): 63.1 ± 7.06 µM

IC50 [1, 11]: 27.8 ± 20.8 µM | IC50 ([1]; read-out: IC50, in vitro CT-L): 27 µM | melting point: 211.3 to 213.8 °C
SMILES: CC(C)N(Cc1nc(-c2ccccc2)no1)C(=O)COc1ccc(C(=O)O)cc1 [11t, 4-(2-(Isopropyl((3-phenyl-1,2,4-oxadiazol-5-yl)methyl)amino)-2-oxoethoxy)benzoic acid]

IC50 [1, 11]: 0.63 ± 0.35 µM | IC50 ([1]; Table 2, read-out: IC50 (μM) Chymotrypsin-like activity): 0.63 ± 0.35 µM | IC50 ([1]; Table 7, 20S CT-L proteasome activity, read-out: IC50 (μM) CT-L): 0.716 ± 0.27 µM | IC50 ([1]; read-out: IC50, in vitro CT-L): 0.65 ± 0.39 µM | IC50 ([3]; MDA-MB-468 breast cancer cells, read-out: whole cell IC50 activity): 1.1 µM and 1 µM
SMILES: Cc1ccc(OCC(=O)N(Cc2nc(-c3ccc(C)cc3)no2)C(C)C)cc1 [compound 1, N-Isopropyl-N-((3-p-tolyl-1,2,4-oxadiazol-5-yl)methyl)-2-(p-tolyloxy)acetamide]

IC50 ([1]; Table 5, read-out: IC50 (μM) Chymotrypsin-like): 0.63 ± 0.35 µM | IC50 ([3]; Table 5, MDA-MB-468, read-out: Whole cell IC50 (μM) Chymotrypsin-like): 1.1 µM
SMILES: Cc1ccc(OCC(=O)N(Cc2nc(-c3ccc(C)cc3)no2)C(C)C)cc1 [drawing 107]
